Assay [1] relates to human hormone-resistant prostatic cancer (PC-3). Description: Example 9: FK330 with paclitaxel in PC-3 tumor-bearing mice. The class given is in vivo, nude mice. As to conditions: FK330 100 mg/kg bid p.o. + paclitaxel 10 mg/kg/day i.v. multicycle. The procedure:
(§1) The dose of FK330 is expressed in terms of the weight of a simple substance (non-hydrate). Paclitaxel was purchased from LC Laboratories, Inc. (Woburn, Mass., USA), and was used as paclitaxel.
(§2) FK330 was suspended (20 mg/mL) in a 0.5% aqueous methyl cellulose solution (0.5% MC), and was orally administered. Paclitaxel was prepared into a stock solution at 10 mg/mL with an ethanol/cremophor solution (mixed at 1:1), and then the stock solution was diluted to 1 mg/mL with physiological saline for injection (Otsuka Pharmaceutical Group) immediately before administration and was intravenously administered through the tail vein.
Human hormone-resistant prostatic cancer-derived PC-3 (CRL-1435) was obtained from American Type Culture Collection (VA, USA). […]
(§3) The body weight and the tumor diameter, determined by using a digital caliper, were measured twice a week. The tumor volume was calculated from the calculation formula for ellipsoid volume of (major axis×[minor axis]^2×0.5).
The results are expressed as the mean value (Mean)±standard error (SEM). […] Using the actual measured values of the tumor volume at each measurement time point, an unpaired statistical test (Student's t-test) of the difference between two groups was carried out between a single administration group and a combination use group. […]

For assay [2], the system named is human ovarian cancer (MCAS). Description: Example 12: FK330 with paclitaxel in MCAS tumor-bearing mice. As to conditions: FK330 100 mg/kg bid p.o. + paclitaxel 10 mg/kg/day i.v. (5 days each cycle). Format: in vivo, nude mice. The procedure:
as §1, §2
Human ovary cancer-derived MCAS (JCRB0240) was obtained from Health Science Research Resources Bank (HSRRB) and used. The cells were cultured under the conditions of 37° C. and 5% CO2 by using EMEM medium containing 20% fetal bovine serum (FBS). […]
as §3
The results are expressed as the mean value (Mean)±standard error (SEM). […]

Assay [3] addresses inducible nitric oxide synthase (inducible NOS, iNOS) (Homo sapiens, UniProt P35228). As to conditions: reported in Non-Patent Document 1; cited from earlier work.

The values that follow come from patent US20140066385A1, “METHOD FOR TREATING CANCER BY COMBINED USE OF DRUGS” (Astellas Pharma Inc., priority 2011, published 2014).

Each structure is given as a SMILES string.

Chain of inducible nitric oxide synthase (inducible NOS, iNOS) (P35228 whole entry): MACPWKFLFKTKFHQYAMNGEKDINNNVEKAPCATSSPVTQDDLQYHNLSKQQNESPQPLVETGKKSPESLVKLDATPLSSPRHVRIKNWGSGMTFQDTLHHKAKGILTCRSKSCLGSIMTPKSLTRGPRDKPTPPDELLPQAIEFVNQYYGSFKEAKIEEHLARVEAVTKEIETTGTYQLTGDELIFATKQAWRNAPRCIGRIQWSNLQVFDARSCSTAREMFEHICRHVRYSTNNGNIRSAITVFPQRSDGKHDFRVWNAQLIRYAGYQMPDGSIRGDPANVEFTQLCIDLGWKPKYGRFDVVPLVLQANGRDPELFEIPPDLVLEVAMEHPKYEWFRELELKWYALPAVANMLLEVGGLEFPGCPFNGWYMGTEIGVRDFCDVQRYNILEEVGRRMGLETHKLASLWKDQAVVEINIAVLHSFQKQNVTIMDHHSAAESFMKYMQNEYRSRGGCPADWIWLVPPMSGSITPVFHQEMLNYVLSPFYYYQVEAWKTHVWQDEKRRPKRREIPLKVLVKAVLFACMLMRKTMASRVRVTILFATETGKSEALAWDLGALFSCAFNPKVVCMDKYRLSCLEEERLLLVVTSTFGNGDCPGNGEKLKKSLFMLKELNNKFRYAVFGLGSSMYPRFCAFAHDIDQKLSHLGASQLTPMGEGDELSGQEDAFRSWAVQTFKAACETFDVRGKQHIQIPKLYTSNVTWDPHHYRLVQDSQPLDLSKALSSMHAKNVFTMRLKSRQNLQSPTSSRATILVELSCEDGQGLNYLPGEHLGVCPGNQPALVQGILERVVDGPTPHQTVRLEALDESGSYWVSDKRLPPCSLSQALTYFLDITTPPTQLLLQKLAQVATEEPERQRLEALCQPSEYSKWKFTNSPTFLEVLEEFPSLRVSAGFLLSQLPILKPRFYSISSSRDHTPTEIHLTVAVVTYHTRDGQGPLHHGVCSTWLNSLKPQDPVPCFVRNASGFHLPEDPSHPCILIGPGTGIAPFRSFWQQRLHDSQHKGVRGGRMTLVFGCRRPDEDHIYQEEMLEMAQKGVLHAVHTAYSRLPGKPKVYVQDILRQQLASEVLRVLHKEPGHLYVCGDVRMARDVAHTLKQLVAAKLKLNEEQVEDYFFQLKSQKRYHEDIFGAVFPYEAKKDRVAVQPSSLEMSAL

Turning to `O=C(/C=C/c1ccc(Cl)cc1)N[C@@H](Cc1ccccn1)C(=O)NCC(=O)N1CCC(Oc2cc(C(F)(F)F)ncn2)CC1` [FK330, N^2-[(2E)-3-(4-chlorophenyl)-2-propenoyl]-N-[2-oxo-2-(4-{[6-(trifluoromethyl)pyrimidin-4-yl]oxy}piperidin-1-yl)ethyl]-3-pyridin-2-yl-L-alaninamide], the “tumor volume reduction ratio compared with the paclitaxel-only group” value in assay [1] (Day 30, P<0.05) came to 63.1%; in assay [1] (Day 55, P<0.001) it was 72.1%; in assay [2] (Day 63, no significant difference) it was 61.5%; in assay [2] (Day 91, P<0.05), 86.0%. The “inducible nitric oxide synthase (iNOS) inhibitory activity” value in assay [3] was “excellent”.
